These results are taken from patent US9795602B2, “Polycyclic-carbamoylpyridone compounds and their pharmaceutical use” (Gilead Sciences, Inc., priority 2014, dated 2017).

A short description of series [1]: Pharmacokinetics after intravenous infusion to male SD rats. As to conditions: Sprague-Dawley, plasma, rat, IV infusion 0.5 mg/kg; for Vd: read-out: Vss. Type of series: in vivo. The protocol:
Pharmacokinetic analysis was performed on compounds 25b and 39 following intravenous or oral administration to rats.
The test compounds were formulated in 5% Ethanol, 55% PEG 300, and 40% water at 0.1 mg/mL for IV infusion and for oral dosing.
Each dosing group consisted of 3 male, Sprague-Dawley rats. At dosing, the animals weighed an average of 0.25 kg. The animals were fasted overnight prior to dose administration and up to 4 hr after dosing.
For the IV infusion group, the test article was administered by intravenous infusion over 30 min. The rate of infusion was adjusted according to the body weight of each animal to deliver a dose of 0.5 mg/kg. For the oral dosing group, the test article was administered by oral gavage at 5 mL/kg for a dose of 0.5 mg/kg.
For pharmacokinetic analysis of intravenously administered compounds, serial venous blood samples (approximately 0.3 mL each) were taken from each animal at 0, 0.250, 0.483, 0.583, 0.750, 1.50, 3.00, 6.00, 8.00, 12.0, 24.0, 48 and 72 hours after dosing. The blood samples were collected into Vacutainer™ tubes containing EDTA-K2 as the anti-coagulant and were immediately placed on wet ice pending centrifugation for plasma. An LC/MS/MS method was used to measure the concentration of the test compound in plasma. An aliquot of 50 μL of each plasma sample was added to a clean 96 well plate, and 200 μL of cold acetonitrile/internal standard solution (ACN)/(ISTD) was added. After protein precipitation, an aliquot of 110 μL of the supernatant was transferred to a clean 96-well plate and diluted with 300 μL of water. An aliquot of 10 μL of the above solution was injected into a ABSciex API-4000 triple quadrupole LC/MS/MS system utilizing a HyPurity C18 HPLC column (30×2.1 mm, 3μ), from Thermo-Hypersil (Part #22103-032130). An Agilent 1200 series binary pump (P/N G1312A Bin Pump) was used for elution and separation, and an HTS Pal autosampler (LEAP Technologies, Carrboro, N.C.) was used for sample injection. A API-4000 triple quadrupole mass spectrometer was utilized in multiple reaction monitoring mode (Applied Biosystems, Foster City, Calif.). Liquid chromatography was performed using two mobile phases: mobile phase A contained 0.1% formic acid and 1% isopropylamine in aqueous solution, and mobile phase B contained […]. Non-compartmental pharmacokinetic analysis was performed on the plasma concentration-time data. The resulting data are shown in the first three columns of Table 2. In Table 2, Cl refers to clearance, which characterizes the rate at which drug is removed from plasma. The lower the clearance of a drug is, the longer the elimination half-life is in the body. Vss refers to the steady state volume of distribution and indicates how well a drug is distributed into the tissues. The larger the Vss is, the longer the elimination half-life is in the body. MRT refers to mean residence time, which is a measure of the average time molecules exist in the body.

A short description of series [2]: Cytotoxicity (CC50) in MT4 cells, mock-infected. It counts as cell-based. As to conditions: human, mock-infected. The procedure, abridged:
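Mock-infected MT4 cells (2000/well) exposed to compounds for 5 days at 37 °C; cell viability then read as chemiluminescence from CellTiter-Glo after brief room-temperature lysis.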

Series [3] is described as follows: Plasma protein binding (equilibrium dialysis). It counts as in vitro ADME. The following applies: human, plasma (sodium EDTA) dialysed against buffer; 2 μM in plasma vs. buffer, 24 hours at 37° C.; read-out: % Free HP/Buffer. The protocol:
Plasma protein binding was determined using a HTD96b equilibrium dialyzer with a plate base, stainless steel pressure plate and Teflon bock. 9 Teflon bars, labeled sequentially from A through I, were assembled with two stainless steel connecting rods. Membranes were placed between two Teflon bars, with the membrane placed approximately 2 mm below the top edge of the bar and the lower membrane edge overlapped the bottom of all wells. The membrane was soaked for about 20 minutes in water, about 20 minutes in ethanol (30/70 v/v) and rinsed with water three times to remove the ethanol. It was soaked in PBS for at least 30 minutes. Plasma in sodium EDTA (Bioreclamation or equivalent) was used. The Plasma (not pH-adjusted) was stored at −80° C. and thawed at room temperature before use. The stock solution of the compounds tested was at 200 μM in DMSO. The quench solution used was 50 nM of an internal standard in 100% ACN. To prepare a 2 μM solution of the compound tested in plasma, 5 μL of a 200 μM stock solution was added to 495 μL of blank plasma. 100 μL plasma was added with 2 μM of test compound into one side of the well. 100 μL of buffer (for plasma vs. buffer) was added into another side of the well. The 96-well plate was covered using an adhesive sealing film and incubated for 24 hours at 37° C. under slow rotation. This procedure was replicated for each compound. 50 μL of plasma sample was put into a 96 well plate, 50 μL of buffer was added. 50 μL of buffer was put into a 96 well plate. 50 μL of plasma was added. 300 μL of quench solution was added and the plate sealed and shaken for 15 minutes. The material was centrifuged for 30 minutes at 3000 RPM and ˜250 μL was transferred into a short plate. The samples were analyzed by LC/MS. The resulting data is shown in the last row of Table 3 as “% Free” which corresponds to the percentage of compound not protein bound.

`CCN1C(=O)c2c(O)c(=O)c(C(=O)NCc3ccc(F)c(Cl)c3F)cn2[C@H]2CCO[C@H]21` [Compound 25b]: in series [1], the MRT is 119 h, the clearance is 1.3 mL/h/kg and the Vd was 0.141 L/kg. Also, the CC50 at 5 days in series [2] worked out at 26.7 µM. Further, the fraction unbound at 24 h, 2 µM in series [3] was below 0.001.

Consider `CCN1C(=O)c2c(O)c(=O)c(C(=O)NCc3ccc(F)c(Cl)c3F)cn2[C@H]2CCOC[C@H]21` [Compound 39], for which, in series [1], the MRT stood at 105 h, the clearance was 2.3 mL/h/kg and the Vd came to 0.212 L/kg. The midpoint of cytotoxicity in series [2], the CC50 at 5 days, lay at 12.8 µM. The fraction unbound at 24 h, 2 µM in series [3] stood at 0.0067.
